Data: patent publication US10058570B2 (priority 2007, dated 2018)
Values joined by “and” are separate entries in the source; they are usually repeats but may differ in a detail not shown here. Equal values may be shown once. Read-outs that look alike come from different tables or passages of the source. Marks after values point to notes of the source that are not given here.

How the values were obtained:
[1] = tested on: developing type II collagen arthritis
[2] = tested on: formalin-induced hind paw licking; type: in vivo, mouse; conditions: for Hind paw licking time (Seconds) (Mean ± SEM): IP, mean (X)
[3] = tested on: lipopolysaccharide-induced septic shock; type: in vivo, mouse
[4] = tested on: reaction of host lymphocytes to alloantigen; conditions: mouse, in vivo, 10 mg/kg
[5] = tested on: LPS-induced neutrophilia in lung tissues; conditions: mouse, in vivo
[6] = tested on: MRMT-1 tumor-induced bone osteolysis; conditions: rat, in vivo
[7] = tested on: acetic acid-induced writhing responses; conditions: mouse, in vivo
[8] = sodium meta arsenite study, oral QD, 0.075 mg/kg
[9] = arsenic trioxide study, IP 10 mg/kg
[10] = arsenic trioxide study, IP, QD, 10 mg/kg

Molecule: CN(Cc1cnc2nc(N)nc(N)c2n1)c1ccc(C(=O)N[C@@H](CCC(=O)O)C(=O)O)cc1 [MTX, methotrexate, reference compound]
- Inhibition of body weight loss from day zero (adjuvant arthritis; PO 0.1 mg/kg): 91%
- Relative liver weights, reduction toward normal (adjuvant arthritis; PO 0.1 mg/kg): 100%
- inhibition of ankle diameter AUC increase (adjuvant arthritis; PO 0.1 mg/kg): 96%
- inhibition of ankle measurements (dorsal to ventral) (adjuvant arthritis; PO 0.1 mg/kg): 97%
- inhibition of final paw weight increase due to arthritis (adjuvant arthritis; PO 0.1 mg/kg): 99%
- inhibition of histopathologic bone resorption (adjuvant arthritis; PO 0.1 mg/kg): 100%
- inhibition of histopathologic inflammation (adjuvant arthritis; PO 0.1 mg/kg): 99%
- inhibition of lymphoid atrophy (adjuvant arthritis; PO 0.1 mg/kg): 50%
- inhibition of splenic inflammation (adjuvant arthritis; PO 0.1 mg/kg): 100%
- inhibition of ankle diameter increase (adjuvant arthritis; PO 0.1 mg/kg, significant days 8-14): Significant inhibition
- Mean body weight decrease over time (due to arthritis) (adjuvant arthritis; PO 0.1 mg/kg, significant days 10-14): inhibited
- Relative spleen weights, reduction toward normal (adjuvant arthritis; PO 0.01): 77%
- Relative spleen weights, reduction as compared to disease control rats ([1]; rat, in vivo, po, 0.075 mg/kg): 10%
- inhibition of ankle diameter ([1]; sodium meta arsenite study, oral 0.075 mg/kg, days 10-17): Significant inhibition
- inhibition of body weight loss (due to arthritis) ([1]; sodium meta arsenite study, oral QD days 0-16, 0.075 mg/kg): 96%
- Inhibition of ankle diameter (AUC) [1, 8]: 97%
- Inhibition of final paw weight [1, 8]: 95%
- inhibition of ankle histopathology parameters [1, 8]: 97%
- inhibition of knee histopathologic parameters [1, 8]: 100%

Molecule: CN1CC[C@]23c4c5ccc(O)c4O[C@H]2[C@@H](O)C=C[C@H]3[C@H]1C5 [Morphine, morphine, reference compound]
- analgesic effect ([2]; mouse, in vivo): associated with analgesic effect
- analgesic effect ([2]; mouse, in vivo, po, 30 mg/kg): significant analgesic effect

Molecule: CC(=O)OCC(=O)[C@@]1(O)[C@H](C)C[C@H]2[C@@H]3CCC4=CC(=O)C=C[C@]4(C)[C@@]3(F)[C@@H](O)C[C@@]21C [Dexamehasone 21-acetate, reference compound]
- % Protection ([3]; PO 3 mg/kg, mortality over 3 days after LPS 30 mg/kg IP): (75) %

Molecule: arsenic trioxide (As2O3)
- Hind paw licking time (Seconds) (Mean ± SEM) ([2]; 1 mg/kg, 0-5 minutes after formalin): 74.6 s
- Hind paw licking time (Seconds) (Mean ± SEM) ([2]; 1 mg/kg, 5-10 minutes after formalin): 2.6* Seconds
- Hind paw licking time (Seconds) (Mean ± SEM) ([2]; 1 mg/kg, 10-15 minutes after formalin): 15.6* Seconds
- Hind paw licking time (Seconds) (Mean ± SEM) ([2]; 1 mg/kg, 15-20 minutes after formalin): 40.0 s
- Hind paw licking time (Seconds) (Mean ± SEM) ([2]; 1 mg/kg, 20-25 minutes after formalin): 57.1 s
- Hind paw licking time (Seconds) (Mean ± SEM) ([2]; 1 mg/kg, 25-30 minutes after formalin): 53.5 s
- Hind paw licking time (Seconds) (Mean ± SEM) ([2]; 1 mg/kg, 30-35 minutes after formalin): 30.0 s
- Hind paw licking time (Seconds) (Mean ± SEM) ([2]; 10 mg/kg, 0-5 minutes after formalin): 9.0* Seconds
- Hind paw licking time (Seconds) (Mean ± SEM) ([2]; 10 mg/kg, 5-10 minutes after formalin): 0.3* Seconds
- Hind paw licking time (Seconds) (Mean ± SEM) ([2]; 10 mg/kg, 10-15 minutes after formalin): 0.0* Seconds
- Hind paw licking time (Seconds) (Mean ± SEM) ([2]; 10 mg/kg, 15-20 minutes after formalin): 0.0* Seconds
- Hind paw licking time (Seconds) (Mean ± SEM) ([2]; 10 mg/kg, 20-25 minutes after formalin): 0.0* Seconds
- Hind paw licking time (Seconds) (Mean ± SEM) ([2]; 10 mg/kg, 25-30 minutes after formalin): 0.0* Seconds
- Hind paw licking time (Seconds) (Mean ± SEM) ([2]; 10 mg/kg, 30-35 minutes after formalin): 0.0 s
- inhibition of the licking response to formalin challenge ([2]; intraperitoneal, 10 mg/kg, intervals 0-5, 5-10, 10-15, 15-20, 20-25 and 25-30 minutes): significant inhibition
- response (inhibition of licking) to formalin challenge ([2]; intraperitoneal, lower dose 1 mg/kg): limited to the intervals of 5-10 and 10-15 minutes after challenge
- Relative thymus weights ([1]; arsenic trioxide study, 10 mg/kg): reduced below arthritic controls
- Relative liver weights, increase above arthritic controls ([1]; arsenic trioxide study, IP 1 mg/kg): 6%
- Relative liver weights, increase above arthritic controls [1, 9]: 10%
- Relative spleen weights, reduction as compared to disease control rats [1, 9]: 21%
- inhibition of decrease in ankle diameter ([1]; arsenic trioxide study, IP 10 mg/kg, days 10-17): Significant inhibition
- Inhibition of ankle diameter AUC [1, 10]: 80%
- Inhibition of final paw weight [1, 10]: 71%
- inhibition of body weight loss [1, 10]: 55%

Molecule: O=[As][O-].[Na+] [sodium meta arsenite, sodium meta arsenite (NaAsO2)]
- immunosuppressive effect in animals treated with alloantigen [4]: slight immunosuppressive effect
- Inhibition of body weight loss from day 0 (adjuvant arthritis; rat, in vivo): 2-14%
- Relative liver weights, reduction (adjuvant arthritis; rat, in vivo): 7-29%
- tolerability (adjuvant arthritis; rat, in vivo): well tolerated
- Calculated ED50, ankle diameter AUC (adjuvant arthritis; rat, in vivo, po): 10.62 mg/kg
- Calculated ED50, ankle measurements (dorsal to ventral) (adjuvant arthritis; rat, in vivo, po): 13.65 mg/kg
- Calculated ED50, final paw weight (adjuvant arthritis; rat, in vivo, po): 1421 mg/kg
- Calculated ED50, histopathologic bone resorption (adjuvant arthritis; rat, in vivo, po): 9.243 mg/kg
- Calculated ED50, histopathologic inflammation (adjuvant arthritis; rat, in vivo, po): 17.25 mg/kg
- inhibition of histopathologic inflammation (adjuvant arthritis; rat, in vivo, po): 76%
- inhibition of lymphoid atrophy (adjuvant arthritis; rat, in vivo, po): 29%
- inhibition of splenic inflammation (adjuvant arthritis; rat, in vivo, po): 32%
- inhibition of ankle diameter increase (adjuvant arthritis; rat, in vivo, po, 3 mg/kg): Significant inhibition
- Relative spleen weights, reduction toward normal (adjuvant arthritis; rat, in vivo, po, 10 mg/kg): 50%
- inhibition of ankle diameter AUC increase (adjuvant arthritis; rat, in vivo, po, 10 mg/kg): 46%
- inhibition of ankle diameter increase (adjuvant arthritis; rat, in vivo, po, 10 mg/kg): Significant inhibition
- inhibition of ankle measurements (dorsal to ventral) (adjuvant arthritis; rat, in vivo, po, 10 mg/kg): 36%
- inhibition of final paw weight increase due to arthritis (adjuvant arthritis; rat, in vivo, po, 10 mg/kg): 28%
- inhibition of histopathologic bone resorption (adjuvant arthritis; rat, in vivo, po, 10 mg/kg): 59%
- inhibition of histopathologic inflammation (adjuvant arthritis; rat, in vivo, po, 10 mg/kg): 24%
- Mean body weight loss over time (adjuvant arthritis; rat, in vivo, po, 30 mg/kg): significantly increased
- Relative spleen weights, reduction toward normal (adjuvant arthritis; rat, in vivo, po, 30 mg/kg): 91%
- inhibition of ankle diameter AUC increase (adjuvant arthritis; rat, in vivo, po, 30 mg/kg): 83%
- inhibition of ankle diameter increase (adjuvant arthritis; rat, in vivo, po, 30 mg/kg): Significant inhibition
- inhibition of ankle measurements (dorsal to ventral) (adjuvant arthritis; rat, in vivo, po, 30 mg/kg): 81%
- inhibition of final paw weight increase due to arthritis (adjuvant arthritis; rat, in vivo, po, 30 mg/kg): 83%
- inhibition of histopathologic bone resorption (adjuvant arthritis; rat, in vivo, po, 30 mg/kg): 81%
- inhibition of lymphoid atrophy (adjuvant arthritis; rat, in vivo, po, 30 mg/kg): 39%
- inhibition of splenic inflammation (adjuvant arthritis; rat, in vivo, po, 30 mg/kg): 89%
- toxicity (based on body weight changes) (adjuvant arthritis; rat, in vivo, po, 30 mg/kg): toxic
- KC in lavage fluid [5]: significant reduction
- TNF-α in lavage fluid [5]: significant suppression
- cell counts in lavage fluid [5]: not associated with any significant changes
- monocyte count in lavage fluid [5]: significant decrease
- neutrophil (differential) count in lavage fluid [5]: significant decrease
- secretion of 1L-1β, Il-6 or MCP-1 observed in brachoaveolar lavage fluid [5]: At no concentration
- white blood cell (total) count in lavage fluid [5]: significant decrease
- ameliorating tumor-induced osteoclasts and osteolysis [6]: strong positive trend
- improving the various aspects of cancer-induced bone damage (histopathology) [6]: positive trend
- IL-1β secretion ([3]; mouse, in vivo): significant inhibition
- IL-6 secretion ([3]; mouse, in vivo): inhibition
- protection against LPS-induced septic shock ([3]; mouse, in vivo): moderate protection
- secretion of KC ([3]; mouse, in vivo, po): no effect
- secretion of MCP-1 ([3]; mouse, in vivo, po): no effect
- secretion of TNF-α ([3]; mouse, in vivo, po): no effect
- analgesic activity ([2]; mouse, in vivo): significant analgesic activity
- analgesic effect [7]: no analgesic effect
- analgesic activity ([7]; po, 10 mg/kg): significant analgesic activity
- number of writhing responses (average) ([7]; po, 10 mg/kg): 7 writhing events
- inhibition of body weight loss (due to arthritis) ([1]; rat, in vivo): 100%
- Relative thymus weights, reduction as compared to disease controls ([1]; rat, in vivo, 1 mg/kg): 20%
- Calculated ED50 value, ankle diameter (AUC) ([1]; rat, in vivo, po): 8.499 mg/kg
- Calculated ED50 value, ankle histopathology ([1]; rat, in vivo, po): 7.080 mg/kg
- Calculated ED50 value, body weight loss ([1]; rat, in vivo, po): 1.929 mg/kg
- Calculated ED50 value, final paw weight ([1]; rat, in vivo, po): 7.116 mg/kg
- Calculated ED50 value, knee histopathology ([1]; rat, in vivo, po): 7.924 mg/kg
- Inhibition of ankle diameter (AUC) ([1]; rat, in vivo, po, 10 mg/kg): 73%
- Inhibition of ankle diameter AUC ([1]; rat, in vivo, po, 10 mg/kg): 66%
- Inhibition of final paw weight ([1]; rat, in vivo, po, 10 mg/kg): 83% and 69%
- Relative liver weights, increase above arthritic controls ([1]; rat, in vivo, po, 10 mg/kg): 14%
- Relative liver weights, increase over disease controls ([1]; rat, in vivo, po, 10 mg/kg): 17%
- Relative spleen weights, reduction as compared to disease control rats ([1]; rat, in vivo, po, 10 mg/kg): 10%
- inhibition of ankle diameter ([1]; rat, in vivo, po, 10 mg/kg): Significant inhibition
- inhibition of ankle histopathology parameters ([1]; rat, in vivo, po, 10 mg/kg): 85%
- inhibition of body weight loss ([1]; rat, in vivo, po, 10 mg/kg): 85%
- inhibition of decrease in ankle diameter ([1]; rat, in vivo, po, 10 mg/kg): Significant inhibition
- inhibition of knee histopathologic parameters ([1]; rat, in vivo, po, 10 mg/kg): 87%
